The EC50 is the concentration that produces a half-maximal response. Read a high EC50 as weaker potency.

The structures appear in SMILES notation.

Glutathione S-transferase class-mu 26 kDa isozyme, sequence (P08515 2-218 limits assumed): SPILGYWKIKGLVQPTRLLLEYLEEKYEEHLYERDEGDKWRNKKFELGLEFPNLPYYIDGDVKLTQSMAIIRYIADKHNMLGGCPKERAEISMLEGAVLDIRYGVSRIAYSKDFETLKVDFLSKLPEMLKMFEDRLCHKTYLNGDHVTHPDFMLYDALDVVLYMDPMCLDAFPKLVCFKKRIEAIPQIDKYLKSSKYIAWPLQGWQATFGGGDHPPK

The assay concerns the target Glutathione S-transferase class-mu 26 kDa isozyme (Schistosoma japonicum, UniProt P08515). Put plainly: GST–glutathione bead interaction interference profiling – biochemical, multiplex beads, flow cytometry, profiling panel (AID 1769). Background: In flow cytometry, cells or beads pass a laser one at a time.
`CCOC1=CC(=Cc2sc(=O)[nH]c2N)C=CC1=O` had an EC50 of 2.47 µM.

As to `CC(N=Nc1ccc(S(N)(=O)=O)cc1[N+](=O)[O-])c1ccc2c(c1)OCO2` (stereo not drawn), the EC50 was 1.4 µM. Turning to `CCn1cc(C(=O)O)c(=O)c2cc(F)c(N=NCc3ccccc3)cc21` [1-Ethyl-6-fluoro-4-oxo-7-{N'-[1-phenyl-meth-(E)-ylidene]-hydrazino}-1,4-dihydro-quinoline-3-carboxylic acid], a half-maximal response (EC50) required 3.88 µM.

For the molecule `CC(C)NC(=S)NN=C1C(=O)Nc2ccc([N+](=O)[O-])cc21` [1-[(5-nitro-2-oxidanylidene-indol-3-yl)amino]-3-propan-2-yl-thiourea], the EC50 is 1.43 µM. In turn, `NC(=S)NNC1=c2cc(Br)cc(Br)c2=NC1=O` [1-[[5,7-bis(bromanyl)-2-oxidanylidene-indol-3-yl]amino]thiourea] showed an EC50 of 69.1 µM. The value for `O=c1[nH]c(=O)c2nnc(N=NCc3ccc(O)cc3)nc2[nH]1` [3-[2-[(4-oxidanylidenecyclohexa-2,5-dien-1-ylidene)methyl]hydrazinyl]-5H-pyrimido[4,5-e][1,2,4]triazine-6,8-dione] was 3.79 µM.

`Cc1nc(N=NCc2ccc(O)cc2)c2cnn(-c3ccccc3)c2n1` [4-[[(6-methyl-1-phenyl-4-pyrazolo[3,4-d]pyrimidinyl)hydrazo]methylidene]-1-cyclohexa-2,5-dienone] showed an EC50 of 3.58 µM. The value for `COC(=O)c1cc(NC(=O)c2cccc(Cl)c2)c(=O)oc1CC=Nc1cc(C)cc(C)c1` [5-[(3-chlorobenzoyl)amino]-2-[(E)-2-(3,5-dimethylanilino)vinyl]-6-keto-pyran-3-carboxylic acid methyl ester] was 0.567 µM; that for `COc1ccc(-c2csc(-c3c(O)cn(C(C)C)c3N)n2)cc1OC` [5-amino-4-[4-(3,4-dimethoxyphenyl)-1,3-thiazol-2-yl]-1-propan-2-yl-2H-pyrrol-3-one] was 87.3 µM; that for `COc1ccc(N=CCc2nc(SC)nnc2C)cc1` [(4-methoxyphenyl)-[(E)-2-[6-methyl-3-(methylthio)-1,2,4-triazin-5-yl]vinyl]amine] was 2.76 µM.

Turning to `COc1cc(CN=Nc2nc(C)nc3c2cnn3-c2ccccc2)ccc1O` [(4E)-2-methoxy-4-[[(6-methyl-1-phenyl-4-pyrazolo[3,4-d]pyrimidinyl)hydrazo]methylidene]-1-cyclohexa-2,5-dienone], the EC50 stood at 0.638 µM. For `Cc1cc(N=NCc2ccc(O)cc2O)nc(-n2nc(C)cc2C)n1` [(4E)-4-[[2-[2-(3,5-dimethylpyrazol-1-yl)-6-methyl-pyrimidin-4-yl]hydrazinyl]methylidene]-3-oxidanyl-cyclohexa-2,5-dien-1-one] the value was 0.831 µM. For `CCN(c1ccc(NC=C2C(=O)N(Cc3ccc(OC)cc3)C(=O)c3ccccc32)cc1)C(C)C` [(4E)-4-[[[4-[ethyl(propan-2-yl)amino]phenyl]amino]methylidene]-2-[(4-methoxyphenyl)methyl]isoquinoline-1,3-dione] the value was 0.249 µM; for `Cc1ccc(O)c(/N=C/C2=CC(Cc3ccccc3)C=C([N+](=O)[O-])C2=O)c1` (stereo not drawn) [(6E)-6-[[(5-methyl-2-oxidanyl-phenyl)amino]methylidene]-2-nitro-4-(phenylmethyl)cyclohexa-2,4-dien-1-one], 8.29 µM; for `O=c1[nH]c(N=NCc2ccc(O)cc2)nc2ccccc12` [MLS000571412], 7.68 µM. The value for `O=C(Cc1ccccc1)NCC(=O)N/N=C1\C(=O)N(Cc2ccc3c(c2)OCO3)c2ccccc21` [MLS000587449] was 12 µM; that for `NC(=S)NNC1=c2cc(F)c(F)cc2=NC1=O` [MLS000589334] was 15.6 µM. Consider `CCNC(=S)NN=C1C(=O)Nc2ccc([N+](=O)[O-])cc21` [MLS000773526], for which the EC50 was 1.93 µM. For `Oc1ccc2ccccc2c1CN=Nc1nnc(-c2ncc[nH]2)c2ccccc12` [SMR000151639] the value was 1.95 µM.

As to `CCn1cc(C(=O)O)c(=O)c2cc(F)c(N=NCc3ccccc3[N+](=O)[O-])cc21` [SMR000171611], the EC50 turned out to be 2.67 µM. For `CN1C(=O)/C(=C2/C(=O)Nc3ccccc32)NC1=S` [SMR000198608] the value was 13.4 µM.

In turn, `CCOc1ccc2c(c1)C(=NN=C(N)N)C(=O)N2C` [SMR000207554] yielded an EC50 of 25.6 µM.

In the case of `COc1cc(CN=Nc2ncnc3sc4c(c23)CCC4)ccc1O` [SMR000242188], the EC50 came to 14.5 µM.

For the origin of these results see BindingDB's records for doi:10.7270/Q2ZC8184 (Nmmlsc, 2010).
